Here are results for two compounds from US9744122B2, “Topical formulation for pain relief” (priority 2013, dated 2017).

A short description of data set [1]: testing of topical pain relief. In kind it is in vivo. The text has this:
A new route of administration for mannitol for the specific indication of pain is disclosed. The topical composition allows for transdermal delivery of mannitol. […] The ingredients, including mannitol, are typically classified as natural health products.
(§1) Therefore, an improved topical composition includes from 0.25% up to 20.0% of menthol, by weight.

Data set [2] in a line: absorption of mannitol through skin. The conditions noted are these: when menthol is included in the composition.
Source text: as §1

The target of data set [3] is TRPV1 receptor (Homo sapiens, UniProt Q8NER1). In words: inventors' own studies on mechanism of topical pain relief. Particulars: distinct from osmotic effects. The source says:
The TRPV1 receptor is present on sensory nerves in the skin and is implicated in neurogenic inflammation, acute pain and chronic pain.

Structures are written as SMILES.

Sequence of TRPV1 receptor (Q8NER1 whole entry): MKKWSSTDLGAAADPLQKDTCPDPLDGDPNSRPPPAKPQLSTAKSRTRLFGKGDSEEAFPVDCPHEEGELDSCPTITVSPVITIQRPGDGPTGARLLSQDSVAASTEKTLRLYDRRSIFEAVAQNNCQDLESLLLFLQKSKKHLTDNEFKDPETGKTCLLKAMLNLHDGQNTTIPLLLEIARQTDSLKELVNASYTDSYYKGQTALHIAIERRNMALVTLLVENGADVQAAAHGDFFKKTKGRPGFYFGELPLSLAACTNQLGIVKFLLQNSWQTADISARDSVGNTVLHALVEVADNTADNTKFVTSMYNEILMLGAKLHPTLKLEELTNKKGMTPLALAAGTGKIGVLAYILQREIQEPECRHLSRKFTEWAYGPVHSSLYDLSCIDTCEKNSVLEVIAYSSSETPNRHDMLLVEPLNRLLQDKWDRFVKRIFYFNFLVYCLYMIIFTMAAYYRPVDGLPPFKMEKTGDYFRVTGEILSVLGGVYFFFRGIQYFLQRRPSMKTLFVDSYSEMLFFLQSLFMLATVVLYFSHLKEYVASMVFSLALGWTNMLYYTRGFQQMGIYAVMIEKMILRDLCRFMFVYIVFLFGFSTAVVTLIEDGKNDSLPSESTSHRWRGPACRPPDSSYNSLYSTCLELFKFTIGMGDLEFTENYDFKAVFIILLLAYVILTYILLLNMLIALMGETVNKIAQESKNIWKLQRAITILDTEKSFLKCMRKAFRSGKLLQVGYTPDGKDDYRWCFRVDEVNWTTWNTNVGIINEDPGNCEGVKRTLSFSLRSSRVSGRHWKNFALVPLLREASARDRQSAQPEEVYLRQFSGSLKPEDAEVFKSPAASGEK

With `OC[C@@H](O)[C@@H](O)[C@H](O)[C@H](O)CO` [mannitol], the pain relief entry in data set [1] (when menthol is included in the composition) is “improved pain relief”. The absorption through skin result in data set [2] is “much more effectively absorbed”. Further, the “effect on TRPV1 receptor” value in data set [3] is “down-regulation”.

On to `CC1CCC(C(C)C)C(O)C1` (stereo not shown) [menthol], for which, in data set [1] (1.25% menthol by weight), the “effectiveness of menthol content in the topical composition” value was “effective”.
